Test results published in ChEMBL document CHEMBL1159297, “Anguillosporal, a new antibacterial and antifungal metabolite from the freshwater fungus Anguillospora longissima” (1995).
Values after ≈ are worked out from the molar mass of the structure shown.

Legend:
Staphylococcus aureus = test: Antibacterial activity against Staphylococcus aureus ATCC 29213 by broth macrodilution method; assay type: functional
Candida albicans = test: Antifungal activity against Candida albicans ATCC 90029 by broth macrodilution method; assay type: functional

MIC (Staphylococcus aureus): 4 µg/mL (≈ 16 µM)
MIC (Candida albicans): 58 µg/mL (≈ 232 µM)
Structure (SMILES): CCCCC(C)c1cc(O)c(CC)c(O)c1C=O (configuration not stated) [ANGUILLOSPORAL]
